From US8546588B2, “Substituted hydroxamic acids and uses thereof” (Millennium Pharmaceuticals, Inc., priority 2010, dated 2013)
pIC50: −log10 of the molar value.

Target: T1, purified human HDAC6 (Homo sapiens, UniProt Q9UBN7)
T1 construct: purchased BPS Bioscience 5006
T1 sequence (Q9UBN7 1-1215): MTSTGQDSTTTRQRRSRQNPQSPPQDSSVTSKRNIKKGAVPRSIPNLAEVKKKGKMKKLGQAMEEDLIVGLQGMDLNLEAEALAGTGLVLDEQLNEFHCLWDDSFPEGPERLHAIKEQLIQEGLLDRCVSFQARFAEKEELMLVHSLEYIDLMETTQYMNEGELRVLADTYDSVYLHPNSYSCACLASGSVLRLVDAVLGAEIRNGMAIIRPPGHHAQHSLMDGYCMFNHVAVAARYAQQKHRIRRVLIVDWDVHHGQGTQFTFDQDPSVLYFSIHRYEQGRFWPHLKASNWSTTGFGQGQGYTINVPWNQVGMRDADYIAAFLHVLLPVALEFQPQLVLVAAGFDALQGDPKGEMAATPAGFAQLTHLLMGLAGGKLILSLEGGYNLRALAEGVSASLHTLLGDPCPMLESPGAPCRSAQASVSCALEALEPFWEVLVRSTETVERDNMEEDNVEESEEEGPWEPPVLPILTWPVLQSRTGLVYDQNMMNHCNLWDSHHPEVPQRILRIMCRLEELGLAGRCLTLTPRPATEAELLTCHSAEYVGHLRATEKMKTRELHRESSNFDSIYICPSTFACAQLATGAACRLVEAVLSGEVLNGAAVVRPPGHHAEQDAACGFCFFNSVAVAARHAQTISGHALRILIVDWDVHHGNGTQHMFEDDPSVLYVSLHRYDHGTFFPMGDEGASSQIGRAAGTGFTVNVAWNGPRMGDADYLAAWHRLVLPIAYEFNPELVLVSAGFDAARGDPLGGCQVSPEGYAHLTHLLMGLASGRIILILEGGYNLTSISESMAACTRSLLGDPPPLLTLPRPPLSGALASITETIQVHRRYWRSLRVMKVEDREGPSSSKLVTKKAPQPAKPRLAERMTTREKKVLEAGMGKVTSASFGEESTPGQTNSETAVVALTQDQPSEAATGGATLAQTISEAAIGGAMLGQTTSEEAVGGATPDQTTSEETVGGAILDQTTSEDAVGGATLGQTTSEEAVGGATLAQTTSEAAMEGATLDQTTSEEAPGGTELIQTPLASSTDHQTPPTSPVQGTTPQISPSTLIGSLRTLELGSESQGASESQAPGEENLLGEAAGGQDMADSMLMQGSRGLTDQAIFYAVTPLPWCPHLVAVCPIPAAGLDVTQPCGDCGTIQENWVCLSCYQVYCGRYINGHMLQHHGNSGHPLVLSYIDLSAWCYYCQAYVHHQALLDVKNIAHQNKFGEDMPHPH
Test: HDAC6 Enzyme Assay
Assay type: biochemical
Conditions: substrate Ac-Arg-Gly-Lys(Ac)-AMC peptide, 1 hour at 30° C.
Procedure: To measure the inhibition of HDAC6 activity, purified human HDAC6 (BPS Bioscience; Cat. No. 5006) is incubated with substrate Ac-Arg-Gly-Lys(Ac)-AMC peptide (Bachem Biosciences; Cat. No. I-1925) for 1 hour at 30° C. in the presence of test compounds or vehicle DMSO control. The reaction is stopped with the HDAC inhibitor trichostatin A (Sigma; Cat. No. T8552) and the amount of Arg-Gly-Lys-AMC generated is quantitated by digestion with trypsin (Sigma; Cat. No. T1426) and subsequent measurement of the amount of AMC released using a fluorescent plate reader (Pherastar; BMG Technologies) set at Ex 340 nm and Em 460 nm. Concentration response curves are generated by calculating the fluorescence increase in test compound-treated samples relative to DMSO-treated controls, and enzyme inhibition (IC50) values are determined from those curves.

Question: With `C[C@H](NC(=O)c1cc2ccccc2s1)c1ncc(C(=O)NO)s1` [Compound I-180, 2-{(1S)-1-[(1-benzothien-2-ylcarbonyl)amino]ethyl}-N-hydroxy-1,3-thiazole-5-carboxamide] as the compound, how does the pIC50 read?
Answer: The pIC50 was > 7.00.

Question: `C[C@@H](NC(=O)C12CC3CC(CC(C3)C1)C2)c1ncc(C(=O)NO)s1` [Compound I-172, 2-((1R)-1-{[1-adamantylcarbonyl]amino}ethyl)-N-hydroxy-1,3-thiazole-5-carboxamide] was tested. Which pIC50 did it give?
Answer: Its pIC50 is < 6.30.

Question: `CC(NC(=O)Nc1ccc(C(C)(C)C)cc1)c1ccc(C(=O)NO)s1` (centres unmarked) [Compound I-36, 5-[1-({[(4-tert-butylphenyl)amino]carbonyl}amino)ethyl]-N-hydroxythiophene-2-carboxamide] was tested. Which pIC50 did it give?
Answer: The pIC50 was > 7.00.

Question: With `C[C@@H](NC(=O)C(C)(C)C)c1cc(C(=O)NO)on1` [Compound I-182, 3-{(1R)-1-[(2,2-dimethylpropanoyl)amino]ethyl}-N-hydroxyisoxazole-5-carboxamide] as the compound, how does the pIC50 read?
Answer: Its pIC50 is < 6.30.

Question: With `CC(NC(=O)c1cccn1C)c1ncc(C(=O)NO)s1` (centres unmarked) [Compound I-52, N-hydroxy-2-(1-{[(1-methyl-1H-pyrrol-2-yl)carbonyl]amino}ethyl)-1,3-thiazole-5-carboxamide] as the compound, how does the pIC50 read?
Answer: The pIC50 was 6.30 to 7.00.

Question: With `C[C@@H](NC(=O)C1(C)CCCCC1)c1ncc(C(=O)NO)s1` [Compound I-162, N-hydroxy-2-((1R)-1-{[(1-methylcyclohexyl)carbonyl]amino}ethyl)-1,3-thiazole-5-carboxamide] as the compound, how does the pIC50 read?
Answer: Its pIC50 is < 6.30.

Question: `CC(NS(=O)(=O)c1cn(C)cn1)c1ccc(C(=O)NO)s1` (centres unmarked) [Compound I-33, N-hydroxy-5-(1-{[(1-methyl-1H-imidazol-4-yl)sulfonyl]amino}ethyl)thiophene-2-carboxamide] was tested. Which pIC50 did it give?
Answer: The pIC50 was 6.30 to 7.00.

Question: `C[C@@H](NC(=O)c1cccn1C)c1ncc(C(=O)NO)s1` [Compound I-174, N-hydroxy-2-((1R)-1-{[(1-methyl-1H-pyrrol-2-yl)carbonyl]amino}ethyl)-1,3-thiazole-5-carboxamide] was tested. Which pIC50 did it give?
Answer: Its pIC50 is 6.30 to 7.00.

Question: `CC(NC(=O)Nc1ccc(Cl)c(C(F)(F)F)c1)c1ccc(C(=O)NO)s1` (centres unmarked) [Compound I-10, 5-{1-[({[4-chloro-3-(trifluoromethyl)phenyl]amino}carbonyl)amino]ethyl}-N-hydroxythiophene-2-carboxamide] was tested. Which pIC50 did it give?
Answer: Its pIC50 is > 7.00.

Question: `Cc1c(C(=O)N[C@H](C)c2ccc(C(=O)NO)s2)oc2ccccc12` [Compound I-15, N-((1R)-1-{5-[(hydroxyamino)carbonyl]-2-thienyl}ethyl)-3-methyl-1-benzofuran-2-carboxamide] was tested. Which pIC50 did it give?
Answer: Its pIC50 is > 7.00.

Question: With `COc1ccc(C(=O)N[C@H](C)c2cc(C(=O)NO)on2)cc1` [Compound I-164, N-hydroxy-3-{(1R)-1-[(4-methoxybenzoyl)amino]ethyl}isoxazole-5-carboxamide] as the compound, how does the pIC50 read?
Answer: Its pIC50 is < 6.30.

Question: `CC(NS(=O)(=O)c1ccccc1F)c1ccc(C(=O)NO)s1` (centres unmarked) [Compound I-47, 5-(1-{[(2-fluorophenyl)sulfonyl]amino}ethyl)-N-hydroxythiophene-2-carboxamide] was tested. Which pIC50 did it give?
Answer: The pIC50 was 6.30 to 7.00.

Question: With `Cc1cccc(C)c1NC(=O)NC(C)c1ccc(C(=O)NO)s1` (centres unmarked) [Compound I-32, 5-[1-({[(2,6-dimethylphenyl)amino]carbonyl}amino)ethyl]-N-hydroxythiophene-2-carboxamide] as the compound, how does the pIC50 read?
Answer: Its pIC50 is 6.30 to 7.00.

Question: With `CC(NC(=O)NC(C)(C)C)c1ccc(C(=O)NO)s1` (centres unmarked) [Compound I-34, 5-(1-{[(tert-butylamino)carbonyl]amino}ethyl)-N-hydroxythiophene-2-carboxamide] as the compound, how does the pIC50 read?
Answer: The pIC50 was 6.30 to 7.00.

Question: How did the pIC50 turn out when `C[C@@H](NC(=O)C1(C)CCCCC1)c1cc(C(=O)NO)on1` [Compound I-157, N-hydroxy-3-((1R)-1-{[(1-methylcyclohexyl)carbonyl]amino}ethyl)isoxazole-5-carboxamide] was run?
Answer: The pIC50 was < 6.30.

Question: With `Cc1c(C(=O)N[C@H](C)c2ccc(C(=O)NO)s2)sc2ccccc12` [Compound I-31, N-((1R)-1-{5-[(hydroxyamino)carbonyl]-2-thienyl}ethyl)-3-methyl-1-benzothiophene-2-carboxamide] as the compound, how does the pIC50 read?
Answer: The pIC50 was > 7.00.

Question: With `C[C@@H](NC(=O)C(C)(C)C)c1ccc(C(=O)NO)s1` [Compound I-6, 5-{(1R)-1-[(2,2-dimethylpropanoyl)amino]ethyl}-N-hydroxythiophene-2-carboxamide] as the compound, how does the pIC50 read?
Answer: Its pIC50 is < 6.30.

Question: How did the pIC50 turn out when `CC(NC(=O)C(C)(C)C)c1ncc(C(=O)NO)s1` (centres unmarked) [Compound I-53, 2-{1-[(2,2-dimethylpropanoyl)amino]ethyl}-N-hydroxy-1,3-thiazole-5-carboxamide] was run?
Answer: The pIC50 was < 6.30.

Question: How did the pIC50 turn out when `CC(NC(=O)C1(c2ccc(Cl)cc2)CCC1)c1ncc(C(=O)NO)s1` (centres unmarked) [Compound I-55, 2-[1-({[1-(4-chlorophenyl)cyclobutyl]carbonyl}amino)ethyl]-N-hydroxy-1,3-thiazole-5-carboxamide] was run?
Answer: The pIC50 was < 6.30.

Question: With `Cc1nc(-c2ccccn2)sc1C(=O)N[C@H](C)c1cc(C(=O)NO)on1` [Compound I-163, N-hydroxy-3-((1R)-1-{[(4-methyl-2-pyridin-2-yl-1,3-thiazol-5-yl)carbonyl]amino}ethyl)isoxazole-5-carboxamide] as the compound, how does the pIC50 read?
Answer: The pIC50 was < 6.30.
